Reference: patent publication US20220202905A1, “COMPOSITION FOR PREVENTING OR TREATING NEUROTROPHIC KERATITIS WHICH CONTAINS PACAP PEPTIDE OR STABILIZED PACAP PEPTIDE” (SENJU PHARMACEUTICAL CO., LTD., priority 2019, published 2022)
Square brackets hold non-standard residues; d marks the D form. Peptide text beside a SMILES is read from it. * marks the point of attachment. Ala(1H-tetrazol-5-yl) = N[C@@H](Cc1nnn[nH]1)C(=O)O; Ms = CS(=O)(=O)*

Test: Peptide stability test, Tris buffer (pH 7.0), 60° C. storage, HPLC remaining rate
Type: physicochemical
Settings: 100 μM in Tris buffer pH 7.0
Experimental: Peptides 1, 2 and 6 to 9 synthesized in Example 2 were weighed and dissolved in Tris buffer (pH 7.0) to prepare 1.0 mM peptide solutions. Each solution was filtered with a Chromatdisk (product of Merck Millipore, Millex-GV, 0.22 μm). The filtrate was diluted to 100 μM with Tris buffer (pH 7.0) and dispensed into a tube (Protein LoBind Tube by Eppendorf Co.). The prepared peptide solutions were incubated for 1 week or 2 weeks in a 60° C. thermostatic bath to obtain stored samples. A simultaneously prepared sample among the peptide solutions that was not stored was used as a standard sample (initial sample). The standard sample and the stored samples were stored at −30° C. until sample analysis. Each stored sample was measured under the following HPLC analysis conditions 2, and the remaining rate after correction for water for each peptide among the stored samples was calculated in the same manner as Example 3. Guard column: XSelect CSH C18 by Waters Co., 5 μm, 4.6×20 mm Guard Cartridge Detection wavelength: 220 nm Mobile phase A: 0.1% formic acid aqueous solution Mobile phase B: 0.1% acetonitrile formate solution Measuring time: 20 minutes Measuring sample injection rate: 50 μL Flow rate: 1.0 mL/min Column temperature: 40° C. Sample cooler: 25° C. Mobile phase delivery: The mixing ratio of mobile phase A and mobile phase B was varied as shown in Table 5 for linear concentration gradient control. Peptides 12 to 25, 27 and 28 synthesized in Example 2 were weighed and dissolved in Tris buffer (pH 7.0) to prepare 1.0 mM peptide solutions. Each solution was filtered with a Chromatdisk (product of Merck Millipore, Millex-GV, 0.22 μm). The filtrate was diluted to 100 μM with Tris buffer (pH 7.0) and dispensed into a tube (Protein LoBind Tube by Eppendorf Co.). The prepared peptide solutions were incubated for one week or 2 weeks in a 60° C. thermostatic bath to obtain stored samples. A simultaneously prepared sample among the peptide solutions that was not stored was used as a standard sample (initial sample). The standard sample and the stored samples were stored at −30° C. until sample analysis. The remaining rate after correction for water for each peptide among the stored samples was calculated in the same manner as Example 4, and the results are shown in Table 7. Peptides 29 to 34 synthesized in Example 2 were weighed and dissolved in Tris buffer (pH 7.0) to prepare 1.0 mM peptide solutions. Each solution was filtered with a Chromatdisk (product of Merck Millipore, Millex-GV, 0.22 μm). The filtrate was diluted to 100 μM with Tris buffer (pH 7.0) and dispensed into a tube (Protein LoBind Tube by Eppendorf Co.). The prepared peptide solutions were incubated for 2 weeks in a 60° C. thermostatic bath to obtain stored samples. A simultaneously prepared sample among the peptide solutions that was not stored was used as a standard sample (initial sample). The standard sample and the stored samples were stored at −30° C. until sample analysis. The remaining rate after correction for water for each peptide among the stored samples was calculated in the same manner as Example 4, and the results are shown in Table 7-2. Peptide 26 synthesized in Example 2 was weighed and dissolved in Tris buffer (pH 7.0) to prepare a 1.0 mM peptide solution. The solution was filtered with a Chromatdisk (product of Merck Millipore, Millex-GV, 0.22 μm). The filtrate was diluted to 100 μM with Tris buffer (pH 7.0) and dispensed into a tube (Protein LoBind Tube by Eppendorf Co.). The prepared peptide solution was incubated for one week or 2 weeks in a 60° C. thermostatic bath to obtain stored samples. A simultaneously prepared sample among the peptide solutions that was not stored was used as a standard sample (initial sample). The standard sample and the stored sample were stored at −30° C. until sample analysis. […]

SMILES	remaining rate after correction for water, 60° C., 1 week preservation (Table 7)	remaining rate after correction for water, 60° C., 2 weeks preservation (Table 7)	other results
CC[C@H](C)[C@H](NC(=O)CNC(=O)[C@H](Cc1nnn[nH]1)NC(=O)[C@H](CO)NC(=O)[C@H](Cc1c[nH]cn1)NC(C)=O)C(=O)N[C@@H](Cc1ccccc1)C(=O)N[C@H](C(=O)N[C@@H](Cc1nnn[nH]1)C(=O)N[C@@H](CO)C(=O)N[C@@H](Cc1ccc(O)cc1)C(=O)N[C@@H](CO)C(=O)N[C@@H](CCCNC(=N)N)C(=O)N[C@@H](Cc1ccc(O)cc1)C(=O)N[C@@H](CCCNC(=N)N)C(=O)N[C@@H](CCCNC(=N)N)C(=O)N[C@@H](CCC(N)=O)C(=O)N[C@@H](CC(C)C)C(=O)N[C@@H](C)C(=O)N[C@H](C(=O)N[C@@H](CCCNC(=N)N)C(=O)N[C@@H](CCCNC(=N)N)C(=O)N[C@@H](Cc1ccc(O)cc1)C(=O)N[C@@H](CC(C)C)C(=O)N[C@@H](C)C(=O)N[C@@H](C)C(=O)N[C@H](C(=O)N[C@@H](CC(C)C)C(=O)NCC(=O)N[C@@H](CCCNC(=N)N)C(=O)N[C@@H](CCCNC(=N)N)C(N)=O)C(C)C)C(C)C)[C@@H](C)O [Peptide 22] (Ac-HS[Ala(1H-tetrazol-5-yl)]GIFT[Ala(1H-tetrazol-5-yl)]SYSRYRRQLAVRRYLAAVLGRR-NH2)	98.2%	–	–
CC[C@H](C)[C@H](NC(=O)CNC(=O)[C@H](Cc1nnn[nH]1)NC(=O)[C@H](C)NC(=O)[C@H](Cc1c[nH]cn1)NC(C)=O)C(=O)N[C@@H](Cc1ccccc1)C(=O)N[C@H](C(=O)N[C@@H](Cc1nnn[nH]1)C(=O)N[C@@H](C)C(=O)N[C@@H](Cc1ccc(O)cc1)C(=O)N[C@@H](CO)C(=O)N[C@@H](CCCNC(=N)N)C(=O)N[C@@H](Cc1ccc(O)cc1)C(=O)N[C@@H](CCCNC(=N)N)C(=O)N[C@@H](CCCCN)C(=O)N[C@@H](CCC(N)=O)C(=O)N[C@@H](CC(C)C)C(=O)N[C@@H](C)C(=O)N[C@H](C(=O)N[C@@H](CCCCN)C(=O)N[C@@H](CCCCN)C(=O)N[C@@H](Cc1ccc(O)cc1)C(=O)N[C@@H](CC(C)C)C(=O)N[C@@H](C)C(=O)N[C@@H](C)C(=O)N[C@H](C(=O)N[C@@H](CC(C)C)C(N)=O)C(C)C)C(C)C)[C@@H](C)O [Peptide 24] (Ac-HA[Ala(1H-tetrazol-5-yl)]GIFT[Ala(1H-tetrazol-5-yl)]AYSRYRKQLAVKKYLAAVL-NH2)	98.1%	94.3%	–
CC[C@H](C)[C@H](NC(=O)CNC(=O)[C@H](Cc1nnn[nH]1)NC(=O)[C@H](C)NC(=O)[C@H](Cc1c[nH]cn1)NC(C)=O)C(=O)N[C@@H](Cc1ccccc1)C(=O)N[C@H](C(=O)N[C@@H](Cc1nnn[nH]1)C(=O)N[C@@H](CO)C(=O)N[C@@H](Cc1ccc(O)cc1)C(=O)N[C@@H](CO)C(=O)N[C@@H](CCCNC(=N)N)C(=O)N[C@@H](Cc1ccc(O)cc1)C(=O)N[C@@H](CCCNC(=N)N)C(=O)N[C@@H](CCCCN)C(=O)N[C@@H](CCC(N)=O)C(=O)N[C@@H](C)C(=O)N[C@@H](C)C(=O)N[C@H](C(=O)N[C@@H](CCCCN)C(=O)N[C@@H](CCCCN)C(=O)N[C@@H](Cc1ccc(O)cc1)C(=O)N[C@@H](CC(C)C)C(=O)N[C@@H](C)C(=O)N[C@@H](C)C(=O)N[C@H](C(=O)N[C@@H](CC(C)C)C(N)=O)C(C)C)C(C)C)[C@@H](C)O [Peptide 25] (Ac-HA[Ala(1H-tetrazol-5-yl)]GIFT[Ala(1H-tetrazol-5-yl)]SYSRYRKQAAVKKYLAAVL-NH2)	95.8%	91.2%	–
CC[C@H](C)[C@H](NC(=O)CNC(=O)[C@H](Cc1nnn[nH]1)NC(=O)[C@H](CO)NC(=O)[C@H](Cc1c[nH]cn1)NC(C)=O)C(=O)N[C@@H](Cc1ccccc1)C(=O)N[C@H](C(=O)N[C@@H](Cc1nnn[nH]1)C(=O)N[C@@H](C)C(=O)N[C@@H](Cc1ccc(O)cc1)C(=O)N[C@@H](CO)C(=O)N[C@@H](CCCNC(=N)N)C(=O)N[C@@H](Cc1ccc(O)cc1)C(=O)N[C@@H](CCCNC(=N)N)C(=O)N[C@@H](CCCCN)C(=O)N[C@@H](C)C(=O)N[C@@H](CC(C)C)C(=O)N[C@@H](C)C(=O)N[C@H](C(=O)N[C@@H](CCCCN)C(=O)N[C@@H](CCCCN)C(=O)N[C@@H](Cc1ccc(O)cc1)C(=O)N[C@@H](CC(C)C)C(=O)N[C@@H](C)C(=O)N[C@@H](C)C(=O)N[C@H](C(=O)N[C@@H](CC(C)C)C(N)=O)C(C)C)C(C)C)[C@@H](C)O [Peptide 26] (Ac-HS[Ala(1H-tetrazol-5-yl)]GIFT[Ala(1H-tetrazol-5-yl)]AYSRYRKALAVKKYLAAVL-NH2)	–	–	remaining rate after correction for water, 60° C., 1 week preservation (Table 10, HPLC conditions 3): 98.0%; remaining rate after correction for water, 60° C., 2 weeks preservation (Table 10, HPLC conditions 3): 94.8%
CC[C@H](C)[C@H](NC(=O)CNC(=O)[C@H](Cc1nnn[nH]1)NC(=O)[C@H](CO)NC(=O)[C@H](Cc1c[nH]cn1)NC(C)=O)C(=O)N[C@@H](Cc1ccccc1)C(=O)N[C@H](C(=O)N[C@@H](Cc1nnn[nH]1)C(=O)N[C@@H](CO)C(=O)N[C@@H](Cc1ccc(O)cc1)C(=O)N[C@@H](CO)C(=O)N[C@@H](CCCNC(=N)N)C(=O)N[C@@H](Cc1ccc(O)cc1)C(=O)N[C@@H](CCCNC(=N)N)C(=O)N[C@@H](CCCCN)C(=O)N[C@@H](C)C(=O)N[C@@H](C)C(=O)N[C@@H](C)C(=O)N[C@H](C(=O)N[C@@H](CCCCN)C(=O)N[C@@H](CCCCN)C(=O)N[C@@H](Cc1ccc(O)cc1)C(=O)N[C@@H](CC(C)C)C(=O)N[C@@H](C)C(=O)N[C@@H](C)C(=O)N[C@H](C(=O)N[C@@H](CC(C)C)C(N)=O)C(C)C)C(C)C)[C@@H](C)O [Peptide 28] (Ac-HS[Ala(1H-tetrazol-5-yl)]GIFT[Ala(1H-tetrazol-5-yl)]SYSRYRKAAAVKKYLAAVL-NH2)	94.6%	90.5%	–
CC[C@H](C)[C@H](NC(=O)CNC(=O)[C@H](Cc1nnn[nH]1)NC(=O)[C@H](CO)NC(=O)[C@H](Cc1c[nH]cn1)NS(C)(=O)=O)C(=O)N[C@@H](Cc1ccccc1)C(=O)N[C@H](C(=O)N[C@@H](Cc1nnn[nH]1)C(=O)N[C@@H](C)C(=O)N[C@@H](Cc1ccc(O)cc1)C(=O)N[C@@H](CO)C(=O)N[C@@H](CCCNC(=N)N)C(=O)N[C@@H](Cc1ccc(O)cc1)C(=O)N[C@@H](CCCNC(=N)N)C(=O)N[C@@H](CCCCN)C(=O)N[C@@H](CCC(N)=O)C(=O)N[C@@H](CC(C)C)C(=O)N[C@@H](C)C(=O)N[C@H](C(=O)N[C@@H](CCCCN)C(=O)N[C@@H](CCCCN)C(=O)N[C@@H](Cc1ccc(O)cc1)C(=O)N[C@@H](CC(C)C)C(=O)N[C@@H](C)C(=O)N[C@@H](C)C(=O)N[C@H](C(=O)N[C@@H](CC(C)C)C(N)=O)C(C)C)C(C)C)[C@@H](C)O [Peptide 29] (Ms-HS[Ala(1H-tetrazol-5-yl)]GIFT[Ala(1H-tetrazol-5-yl)]AYSRYRKQLAVKKYLAAVL-NH2)	–	–	remaining rate after correction for water, 60° C., 2 weeks preservation (Table 7-2): 91.9%
